Experimental data published in ChEMBL document CHEMBL1201862, “PubChem BioAssay data set” (2004).
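How tested: cells in 96-well plates exposed to compound for 48 hours at five concentrations. Here, GI50 denotes the concentration required for 50% inhibition of growth.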 Active and inactive are the calls of the source. Rule as the data show it: active = GI50 up to about 1.1 µM and inactive = higher.

What was measured:
Test in all cases: inhibition of tumour cell growth, NCI panel, 48 h
MDA-N = test system: MDA-N
NCI-H522 = test system: NCI-H522
CAKI-1 = test system: CAKI-1
MOLT-4 = test system: MOLT-4
SF-539 = test system: SF-539
SF-295 = test system: SF-295
HOP-92 = test system: HOP-92
SR = test system: SR
HCT-116 = test system: HCT-116
MDA-MB-231 = test system: MDA-MB-231
LOX IMVI = test system: LOX IMVI
SW-620 = test system: SW-620
HL-60 = test system: HL-60
SK-MEL-2 = test system: SK-MEL-2
OVCAR-3 = test system: OVCAR-3
HCC 2998 = test system: HCC 2998
MCF7 = test system: MCF7
RPMI-8226 = test system: RPMI-8226
DU-145 = test system: DU-145
SNB-19 = test system: SNB-19

| SMILES | GI50 (MDA-N) | GI50 (NCI-H522) | GI50 (CAKI-1) | GI50 (MOLT-4) | GI50 (SF-539) | GI50 (SF-295) | GI50 (HOP-92) | GI50 (SR) | GI50 (HCT-116) | GI50 (MDA-MB-231) | GI50 (LOX IMVI) | GI50 (SW-620) | GI50 (HL-60) | GI50 (SK-MEL-2) | GI50 (OVCAR-3) | GI50 (HCC 2998) | GI50 (MCF7) | GI50 (RPMI-8226) | GI50 (DU-145) | GI50 (SNB-19) |
| --- | --- | --- | --- | --- | --- | --- | --- | --- | --- | --- | --- | --- | --- | --- | --- | --- | --- | --- | --- | --- |
| CS(=O)(=O)N1CC(CI)c2ccc(O)cc21 (stereo not drawn) | 2.54 µM (inactive) | 1.15 µM (inactive) | 1.96 µM (inactive) | 0.809 µM (active) | 2.99 µM (inactive) | 3.51 µM (inactive) | 2.18 µM (inactive) | 1.4 µM (inactive) | 2.98 µM (inactive) | 2.84 µM (inactive) | 3.21 µM (inactive) | 2.18 µM (inactive) | 1.79 µM (inactive) | 2.1 µM (inactive) | 2.89 µM (inactive) | 2.08 µM (inactive) | 0.925 µM (active) | 1.61 µM (inactive) | 3.05 µM (inactive) |  |
| C=C(C)C(CC=C(C)C)Cc1c(O)cc(OC)c2c1OC(c1ccc(O)cc1O)C(O)C2=O (stereo not drawn) | 14.9 µM (inactive) | 18.9 µM (inactive) | 13.6 µM (inactive) | > 100 µM (inactive) | 15.9 µM (inactive) | 15 µM (inactive) | 14.6 µM (inactive) | > 100 µM (inactive) | 17.3 µM (inactive) | 18.6 µM (inactive) | 20 µM (inactive) | 16.6 µM (inactive) | > 100 µM (inactive) | 19.5 µM (inactive) | 16.7 µM (inactive) | 16.8 µM (inactive) | 13.2 µM (inactive) | > 100 µM (inactive) | 18.3 µM (inactive) | 15.5 µM (inactive) |
| O=C(CCNC12CC3CC(CC(C3)C1)C2)c1ccccc1 | 16 µM (inactive) | 17.3 µM (inactive) | > 10 µM (inactive) | 13.1 µM (inactive) | 20.9 µM (inactive) | 20 µM (inactive) | 20.4 µM (inactive) | 13.4 µM (inactive) | 15.2 µM (inactive) | 13.4 µM (inactive) |  | 17.3 µM (inactive) | 10.3 µM (inactive) | 15.9 µM (inactive) | > 10 µM (inactive) | 13.3 µM (inactive) | 19.3 µM (inactive) | 8.13 µM (inactive) | 24.8 µM (inactive) | 47 µM (inactive) |
| CCCCc1ccc(Nc2nc3c(ncn3C3CC(O)C(CN=[N+]=[N-])O3)c(=O)[nH]2)cc1 (stereo not drawn) | > 100 µM (inactive) | > 100 µM (inactive) | > 100 µM (inactive) | > 100 µM (inactive) |  | > 100 µM (inactive) | > 100 µM (inactive) | > 100 µM (inactive) | > 100 µM (inactive) | > 100 µM (inactive) | > 100 µM (inactive) | > 100 µM (inactive) | > 100 µM (inactive) | > 100 µM (inactive) | > 100 µM (inactive) | > 100 µM (inactive) | > 100 µM (inactive) | > 100 µM (inactive) | > 100 µM (inactive) | > 100 µM (inactive) |
| Cc1cc(C)nc(NS(=O)(=O)c2ccc(Nc3c4ccccc4nc4c(C(=O)NCCCN(CCO)CCO)cccc34)cc2)n1 | 17.7 µM (inactive) | 10.9 µM (inactive) | 56.2 µM (inactive) | 3.33 µM (inactive) |  | 27.4 µM (inactive) | 5.18 µM (inactive) | 9.75 µM (inactive) |  | 27.4 µM (inactive) | 10.3 µM (inactive) | 8.36 µM (inactive) | 11.5 µM (inactive) | 14.2 µM (inactive) | 30.1 µM (inactive) | 16.7 µM (inactive) | 5.89 µM (inactive) | 9.38 µM (inactive) | 41.6 µM (inactive) | 9.29 µM (inactive) |
| COc1cc(CNc2c3ccccc3nc3ccccc23)cc(OC)c1OC | 2.76 µM (inactive) | 2.55 µM (inactive) | 2.74 µM (inactive) | 1.37 µM (inactive) | 3.95 µM (inactive) | 3.56 µM (inactive) | 3.58 µM (inactive) | 3.08 µM (inactive) | 1.44 µM (inactive) | 5.42 µM (inactive) | 2.39 µM (inactive) | 1.16 µM (inactive) |  | 2.23 µM (inactive) | 5.21 µM (inactive) | 2.78 µM (inactive) | 5.48 µM (inactive) | 2.82 µM (inactive) | 4.52 µM (inactive) | 4.63 µM (inactive) |
| C=C(C)C(=O)O[C@@H]1C[C@@]2(C)O[C@@H]2C[C@H](O)/C(C)=C/[C@H]2OC(=O)C(=C)[C@@H]21 | 50 µM (inactive) | 12.6 µM (inactive) | 28.6 µM (inactive) | 28.8 µM (inactive) | > 100 µM (inactive) | > 100 µM (inactive) | 52.8 µM (inactive) | 28.2 µM (inactive) | 33.7 µM (inactive) | > 100 µM (inactive) | 29.9 µM (inactive) | 18.7 µM (inactive) |  | 49.1 µM (inactive) | 47.9 µM (inactive) | > 100 µM (inactive) | 35.8 µM (inactive) | 40.1 µM (inactive) | > 100 µM (inactive) | > 100 µM (inactive) |
